“Also recorded” adds a separate entry of the source.
What was measured:
HUT-78 cells = test: Cellular uptake and extrusion of photosensitizer (flow cytometry MFI); format: cell-based; conditions: ±SE; for Uptake MFI: 2.5 × 10^−7 M photosensitizer, 20 minutes exposure; for % Extrusion: percent change in MFI after 18 hour extrusion period, 2.5 × 10^−7 M
Protocol: Cellular Uptake and Extrusion of Chalcogenorhodamine Photosensitizers. […] Cellular uptake of the chalcogenorhodamine photosensitizers was measured after a 20 minute exposure to 2.5×10^−7 M photosensitizer in malignant T cells (HUT-78 cells, Table 2). Transmembrane movement of the photosensitizers in the secretory direction (basolateral to apical) was measured after an 18-h extrusion period. As described above, the Se-containing molecules fluoresced at a lower intensity relative to the S-containing molecules. […] Overall, the PF6^− salts were more slowly extruded from cells relative to the chloride salts of the amide, with a greater difference in the extrusion kinetics noted between the thiorhodamine PF6 salts compared to the selenorhodamine chloride salts.

physchem = conditions: n-octanol/phosphate buffered saline, pH 7.4
[1] = n-octanol / PBS pH 7.4, shake flask
P-gp = P-gp (Homo sapiens, UniProt P08183); conditions: cited from earlier work
MDCK-MDR1 cells = conditions: cited from earlier work
[2] = tested on: immunomagnetically-selected CD3+ cells; test: Phototoxicity: photodepletion (PD) of CD3+ cells, real-time OCR; format: cell-based; conditions: 5.0×10^−8 M 20 minutes, 30 minutes photosensitizer-free, 5 J/cm^2 light
From the text: (§1) Selective phototoxicity of Chalcogenorhodamine Photosensitizers. Based on the rapid extrusion kinetics and low potential for toxicity in resting cells, we selected four amide-containing half-julolidine analogues for further analysis (2-S—Cl, 2-Se—Cl, 4-S—Cl, and 4-Se—Cl). These photosensitizers are associated with high singlet oxygen quantum yields (Table I). As a result, very low concentrations of these agents are required for phototherapy. For all PD experiments, immunomagnetically-selected CD3^+ cells were suspended in a photosensitizer-rich media of 5.0×10^−8 M for 20 minutes followed by 30 minutes in a photosensitizer-free media. Cells were then exposed to 5 J/cm^2 of light followed by real-time measurement of OCR and ECAR. […] We next evaluated the effects of PD on cell survival. For these experiments, FACS analysis was performed 18 hours after PD. Cell survival was identified by failure to bind Annexin 5 and 7AAD, and percent survival was calculated as the difference in the absolute number of cells between PD and control (non-PD samples) samples.

[3] = Quantum yield for generation of singlet oxygen, time-resolved 1O2 phosphorescence; format: physicochemical; conditions: air-saturated MeOH, TMR-Se as reference
[4] = tested on: immunomagnetically-selected CD3+ cells; test: Phototoxicity: cell survival by FACS (Annexin 5/7AAD) 18 hours after PD; format: cell-based; conditions: 5.0×10^−8 M, 5 J/cm^2 light, FACS 18 hours after PD
From the text: as §1

[5] = tested on: activated T cells (CD25+); test: PD of activated T cells after SEB stimulation: bioenergetics and survival; format: cell-based; conditions: 5×10^−8 M, 5 J/cm^2
Protocol: To evaluate the differential effects of PD on bioenergetics of activated and resting T cells, immunomagnetically-selected CD25^+ and CD25^− T cells were isolated (>95% purity) after SEB stimulation. PD was then performed, and bioenergetics were measured within 1 hour. The percent of basal OCR devoted to ATP production was determined by comparing basal OCR to baseline OCR (after oligomycin injection). […] Upon exposure to light, the higher concentration of 2-Se—Cl selectively disrupted OXPHOS in activated T cells. To determine whether the selective impedance of basal ATP production affected cell survival, we performed FACS analysis 18 hours after PD (FIG. 5C).

resting T cells = test: Dark toxicity: bioenergetics (O2 consumption rate) of resting T cells; conditions: 5.0×10^−7 M
[6] = Fluorescence quantum yield in MeOH; format: physicochemical; conditions: quantum yield for fluorescence in MeOH
PBMCs = format: cell-based; conditions: SEB 50 ng/mL 72 hours, CFSE
[7] = reference value; cited from earlier work
cytochrome c oxidase = conditions: whole cells, irradiation; cited from earlier work

Sequence of P-gp (P08183 whole entry): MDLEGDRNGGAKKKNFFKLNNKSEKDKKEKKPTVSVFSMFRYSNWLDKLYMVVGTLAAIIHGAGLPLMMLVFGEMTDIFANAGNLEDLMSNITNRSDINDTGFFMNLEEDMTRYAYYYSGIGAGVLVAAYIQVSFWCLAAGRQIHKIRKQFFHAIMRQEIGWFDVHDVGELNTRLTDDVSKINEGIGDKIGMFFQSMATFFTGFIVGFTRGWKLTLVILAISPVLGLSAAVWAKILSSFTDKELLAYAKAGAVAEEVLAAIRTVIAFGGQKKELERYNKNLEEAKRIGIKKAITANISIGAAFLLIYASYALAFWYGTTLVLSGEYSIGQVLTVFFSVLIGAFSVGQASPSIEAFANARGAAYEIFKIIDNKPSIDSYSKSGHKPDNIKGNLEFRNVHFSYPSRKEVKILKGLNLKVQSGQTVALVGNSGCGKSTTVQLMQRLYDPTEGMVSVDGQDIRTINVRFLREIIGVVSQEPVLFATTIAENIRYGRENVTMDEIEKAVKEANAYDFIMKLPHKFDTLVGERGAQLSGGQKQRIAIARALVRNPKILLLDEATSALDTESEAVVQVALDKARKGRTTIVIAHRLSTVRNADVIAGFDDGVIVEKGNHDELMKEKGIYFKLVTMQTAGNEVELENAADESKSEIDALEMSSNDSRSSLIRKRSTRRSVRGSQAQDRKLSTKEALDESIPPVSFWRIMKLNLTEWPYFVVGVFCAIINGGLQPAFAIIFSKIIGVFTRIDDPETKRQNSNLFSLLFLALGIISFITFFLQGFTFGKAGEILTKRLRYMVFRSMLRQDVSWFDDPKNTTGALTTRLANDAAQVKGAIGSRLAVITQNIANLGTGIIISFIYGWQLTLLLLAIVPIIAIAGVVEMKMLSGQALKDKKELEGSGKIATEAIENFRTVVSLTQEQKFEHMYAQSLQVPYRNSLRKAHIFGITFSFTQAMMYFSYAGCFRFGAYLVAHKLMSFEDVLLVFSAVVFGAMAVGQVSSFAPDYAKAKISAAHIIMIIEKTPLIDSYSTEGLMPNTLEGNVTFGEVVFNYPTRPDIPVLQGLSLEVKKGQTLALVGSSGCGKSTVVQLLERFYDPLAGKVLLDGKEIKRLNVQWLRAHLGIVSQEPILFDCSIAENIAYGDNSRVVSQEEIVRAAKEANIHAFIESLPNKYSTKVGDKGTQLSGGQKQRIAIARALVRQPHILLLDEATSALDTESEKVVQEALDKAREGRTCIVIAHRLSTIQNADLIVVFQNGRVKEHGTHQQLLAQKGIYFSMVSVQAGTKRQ

Q: For `CCN(CC)C(=O)c1ccc(-c2c3ccc(N(C)C)cc3[se+]c3c4c5c(cc23)CCCN5CCC4)s1.[Cl-]` [8-Se—Cl, 12-(Dimethylamino)-2,3,6,7-tetrahydro-9-(5-(diethylcarbamoyl)-thiophen-2-yl)-1H,5H-selenoxantheno[2,3,4-ij]quinolizin-14-ium Chloride], which “Uptake MFI” value (HUT-78 cells) is on record?
A: 19365

Q: And the “% Extrusion” value (HUT-78 cells)?
A: 83.05 (±1.78) %

Q: And the logP (physchem)?
A: 2.87 ± 0.01

Q: What about the melting point of the same compound?
A: 150 to 152 °C

Q: Which results are given for `CCN(CC)C(=O)c1ccc(-c2c3ccc(N(C)C)cc3[s+]c3c4c5c(cc23)CCCN5CCC4)s1.F[P-](F)(F)(F)(F)F` [8-S—PF6]?
A: Uptake MFI (HUT-78 cells): 128000; % Extrusion (HUT-78 cells): 79.40 (±1.56) %; log P [1]: 1.4; effect on ATPase activity in P-gp (P-gp): stimulate ATPase activity; PBA (MDCK-MDR1 cells): 21 ×10⁻⁶ cm/s

Q: Which “effect of PD on basal OCR” value [2] does the source give for `CN1CCC(C)(C)c2cc3c(-c4ccc(C(=O)N5CCCCC5)s4)c4ccc(=[N+](C)C)cc-4[se]c3cc21.[Cl-]` [2-Se—Cl, N-methyl-N-(1,4,4-trimethyl-6-(5-(piperidine-1-carbonyl)thiophen-2-yl)-3,4-dihydro-1H-selenochromeno[3,2-g]quinolin-9(2H)-ylidene)methanaminium Chloride] here?
A: did not significantly impede the basal OCR

Q: And the “Uptake MFI” value (HUT-78 cells)?
A: 6536

Q: What about the “% Extrusion” value (HUT-78 cells) of the same compound?
A: 92.17 (±1.09) %

Q: What about the “aerobic glycolysis after PD” value (resting T cells (CD25−)) of the same compound?
A: not affecting aerobic glycolysis of either population

Q: What about the “cell death in resting T cell population” value (resting T cells (CD25−)) of the same compound?
A: minimal to no cell death

Q: And the “Φ(^1O2), MeOH” value [3]?
A: 0.48±0.03

Q: And the “cell death after PD” value [4]?
A: minimal cell death

Q: What about the “activated T cells eliminated from culture” value ([5]; FACS 18 hours after PD) of the same compound?
A: Greater than 90%

Q: What about the “aerobic glycolysis after PD” value ([5]; activated T cells) of the same compound?
A: not affecting aerobic glycolysis of either population

Q: And the “OXPHOS associated ATP production after PD” value ([5]; activated T cells, within 1 hour)?
A: significantly impeded

Q: What about the dark toxicity (resting T cells) of the same compound?
A: not associated with any significant dark toxicity; also recorded: minimal toxicity

Q: What about the “ΦF, MeOH” value [6] of the same compound?
A: 0.009 ± 0.001

Q: What about the “log P” value [1] of the same compound?
A: 2.23 ± 0.04

Q: What about the “response to TSST-1 after PD” value (PBMCs; challenge with TSST-1, 6 days) of the same compound?
A: a robust response was observed

Q: What about the “proliferation in response to SEB after PD” value (PBMCs; rechallenge with SEB, 6 days) of the same compound?
A: no proliferation occurred

Q: With `CN(C)c1ccc2c(-c3ccccc3)c3ccc(=[N+](C)C)cc-3[se]c2c1.[Cl-]` [TMR-Se] as the compound, how does the “Φ(^1O2) of reference” value [7] read?
A: 0.87

Q: What about the “cytochrome c oxidase activity in irradiated treated cells” value (cytochrome c oxidase) of the same compound?
A: light fluence-dependent inhibition of cytochrome c oxidase activity

Reference: patent US20170096636A1, “METHODS AND COMPOUNDS FOR PHOTOTHERAPY WITH CHALCOGENORHODAMINE PHOTOSENSITIZERS” (Wake Forest University Health Sciences, priority 2014, published 2017)
